Reference: patent US20130267757A1, “ANTH[…] USE AS RADIOS[…] CANCER TREATMENT” (Sensit Science Ltd., priority 2010, published 2013)

Assays:
[1] = test system: MCF-7 human breast carcinoma grown as monolayer; test: Example 2B AlamarBlue proliferation, MCF7 linear cells; format: cell-based; conditions: 0.1-2 μM; single dose 10 Gy; FIG. 6C
Method: (§1) Linear cell (Lin) HT29 and MCF7 human breast carcinoma, were obtained from the American Type Culture Collection (ATCC).
(§2) Cells were cultured in Dulbecco's Modified Eagle Medium (DMEM), supplemented with 10% fetal calf serum (FCS) and antibiotics.
(§3) Three photosensitizing agents were used, Hypericin (Hy), Tetrabromo hypericin (TBrHy), and hypericin tetrasulfonic acid (HyTS) in the following concentrations: 0.1 μM, 1 μM and 2 μM. Drugs were protected from light for all time. Control cells were treated with 0.1% DMSO (vehicle).
(§4) Linear and CSC were exposed to 3 Gy irradiation daily for four consecutive days or to a single dose of 10 Gy radiation. Radiation was initiated one day after treatment with the hypericin or hypericin derivatives.
(§5) Linear and CSCs were cultured in a 96 plate in triplicates. Each cell line was treated with the three radiosensitizing agents in the indicated doses. In addition culture cells were exposure to radiation. A day before the irradiation, the radiosensitizing agents were added to the culture. Cells were allowed to grow over a period of 5 days using the method of AlamarBlue™ reduction assay. 10% Alamar Blue solution added to each well. Cells viability was measured using Eliza Reader at two different wavelengths: 570 nm and 600 nm, and the appropriate equation was calculated to reflect cell viability.

[2] = test system: PANC01 human pancreatic adenocarcinoma cells; test: PANC01 human pancreatic adenocarcinoma tumors in CB.17 SCID mice, tumor volume (Example 4C); format: in vivo; conditions: 10 mg/kg + 10 Gy radiation
Method: Mice were injected with the radiosensitizing agent, and immediately after were placed in the dark. Radiation was conducted 2 hours after radiosensitizing administration. […] Tumor volume was measured prior to the treatment and thereafter twice weekly.

[3] = test system: MD-MB-231-human breast carcinoma; test: AlamarBlue cell proliferation assay after radiosensitizer and irradiation, MDA-MB-231; format: cell-based; conditions: 1 μM; FIG. 4C, P<0.05
Method: (§6) Human breast carcinoma: MCF-7 (ATCC number: HTB-22); MDA-MB-231 (ATCC number: HTB-26)
(§7) Human colorectal cancer cell line: HT-29 (ATCC number: HTB-38). All cells were cultured routinely in DMEM supplemented with 10% FCS.
(§8) Three hypericin derivatives were used in the assay, including hypericin tetrasulfonic acid (HyTS); Tetrabromo hypericin (TBrHy); and Hexamethyl hypericin (HxMeHy). In addition, as control, hypericin and/or Photofrin II as well as cells exposed only to radiation, i.e. without a radiosensitizing agent.
(§9) The hypericin, hypericin derivatives and photofrin II were used in doses ranging from 0.1 μM up to 2 μM. All compounds were dissolved in DMSO, and were protected from light.
(§10) In all cases, control and tumor cells were exposed to ionizing radiation (Siemens X-ray device with 250 kV or with LINAC) at 24 h after the incubation with Hyperecin, Photofrin II or Hypericin derivatives indicated below. The total delivered radiation dose was a 10 Gy, provided in a single irradiation session on the second day of culture. The response of the tumor to the radiation treatment was evaluated by determining growth delay using the described cell proliferation assay. […]
(§11) Unless indicated otherwise, the tumor cell lines were cultured at a starting density of 1×10^5 cells/mL in DMEM and 10% FCS. […] Absorbance was measured at 570 nm and 600 nm using a micro-titer plate reader. […]

[4] = test system: HT29-colon cancer grown as cancer stem cells spheres; test: Example 2B AlamarBlue proliferation, HT29 cancer stem cells; format: cell-based, human; conditions: 0.1-2 μM; single dose 10 Gy; FIG. 6B; compared with monolayer
Method: as §1
(§12) Enrichment of the cancer stem cells (CSCs) population was done by incubating linear cells in a DMEM/F-12 (HAM) 1:1 medium supplement with Insulin-Transferin-Soldium Selenite, and growth factors specific for each cell line. Cells considered enriched for CSCs after 10-15 days in CSCs medium.
as §3, §4
Linear and CSCs were cultured in a 96 plate in triplicates. Each cell line was treated with the three radiosensitizing agents in the indicated doses. In addition culture cells were exposure to radiation. A day before the irradiation, the radiosensitizing agents were added to the culture. […] Cells viability was measured using Eliza Reader at two different wavelengths: 570 nm and 600 nm, and the appropriate equation was calculated to reflect cell viability.

U87 Tumors [5] = conditions: wavelength of 665 nm; with or without radiation
Method: U87 Tumors were resected when tumors reached end-point (1500 mm^3), minced, and digested in 4 mg/ml collagenase III, 2 mg/ml hyaluronidase, and 2 mg/ml collagenase IV in serum free DMEM, for 20 min, at 37° C. Cells were then filtered through a 40 μm sieve, and washed twice with PBS to obtain single U87 cell suspension.
The single U87 tumor cell suspensions were then acquired on Cyan ADP flow cytometer (Beckman Coulter) and analyzed with Summit (Beckman Coulter) software.
The FL8 channel, (wavelength of 655/20 nm) was used to detect differences between positive and negative cells. From each sample, at least 50,000 cells were acquired.
(§13) These studies were aimed at assessing the localization of radiosensitizing agents and were conducted by two complementary techniques; the first in implanted U87 human glioma tumors using UV lamp and the second in extracted U87 tumors using Flow Cytometry techniques.

[6] = test system: HT29-colon cancer grown in monolayer; test: Example 2B AlamarBlue proliferation, HT29 linear cells; format: cell-based, human; conditions: 0.1-2 μM; single dose 10 Gy; FIG. 6A
Method: as §1, §2, §3, §4, §5

[7] = Treatment toxicity: body weight and overall behaviour (Example 4A); format: in vivo, nude mice; conditions: 10 mg/kg
Method: Mice injected with 5% DMSO vehicle served as the control untreated group. Immediately after the injections, the mice were placed in the dark. For each group of radiosensitizing agent treated mice, half of the treated mice were then treated with a 10 Gy dose of radiation, initiated two hours after the administration of the radiosensitizing agents.
Treatment toxicity was evaluated using two parameters, (i) measuring mice's body weight and (ii) monitoring overall mice behaviour, both parameters were measured twice weekly.

U87 Tumors [8] = conditions: during the 2 hours prior to radiation
Method: U87 Tumors were implanted subcutaneously in nude mice and then examined under a UV light lamp and the colour intensity was visualized.
as §13

[9] = test system: MCF-7 human breast carcinoma; test: AlamarBlue cell proliferation assay after radiosensitizer and irradiation, MCF-7 monolayer; format: cell-based; conditions: 1 μM
Method: as §6, §7, §8, §9, §10, §11

[10] = brain sections of treated mice, fluorescence 550-650 nm
[11] = test system: MCF-7 human breast carcinoma grown as cancer stem cells spheres; test: Example 2B AlamarBlue proliferation, MCF7 cancer stem cells; format: cell-based
Method: as §1, §12, §3, §4, §5

U87 human glioma tumors = conditions: 10 mg/kg + 10 Gy radiation; CB.17 SCID mice; FIG. 8A
Method: U87 human glioma cells at a concentration of 5×10^6 were implanted into the flank of eight to ten weeks old CB.17 SCID mice (n=4-5 mice per group).
Treatment was initiated when the tumors reached a size of 100-150 mm^3, and included the following treatment groups:
Specifically, mice were injected with the radiosensitizing agent, and immediately placed in the dark. Radiation was initiated two hours after radiosensitizing administration. Mice were kept in the dark for the following 72 hours, in order to minimize the effect of light on the traces of the radiosensitizing agents. Tumor volume was monitored prior to treatment and thereafter twice weekly.

[12] = test system: HT29-human colon carcinoma; test: AlamarBlue cell proliferation assay after radiosensitizer and irradiation, HT29; format: cell-based; conditions: 1 μM; FIG. 4E, P<0.05
Method: as §7, §8, §9
In all cases, control and tumor cells were exposed to ionizing radiation (Siemens X-ray device with 250 kV or with LINAC) at 24 h after the incubation with Hyperecin, Photofrin II or Hypericin derivatives indicated below. The total delivered radiation dose was a 10 Gy, provided in a single irradiation session on the second day of culture. The response of the tumor to the radiation treatment was evaluated by determining growth delay using the described cell proliferation assay.
Cell proliferation assay using AlamarBlue
as §11

## Cc1c(S(=O)(=O)O)c(O)c2c(=O)c3c(O)c(S(=O)(=O)O)c(O)c4c5c(O)c(S(=O)(=O)O)c(O)c6c(=O)c7c(O)c(S(=O)(=O)O)c(C)c8c1c2c(c34)c(c78)c65 [HyTS, hypericin tetrasulfonic acid]
[1]
  inhibiting proliferation of MCF7 human breast cancer cells grown as monolayer: effective in inhibiting the proliferation
[2]
  anti-tumor activity in PANC1 pancreatic tumors compared with U87: somewhat better activity
[2]; CB.17 SCID mice, FIG. 8B
  tumor volume of PANC1 pancreatic tumors, agent with radiation: anti-tumor activity
[3]
  radiosensitizing effect on breast cancer MD-MB-231 (proliferation on day 5): statistically significantly effective
[4]
  sensitivity of HT-29 colon cancer stem cells to treatment: more sensitive
U87 Tumors [5]
  fluorescent signal of tumor cells by flow cytometry: fluorescent signal was detected
[6]
  radiosensitizing HT-29 colon cancer cells (monolayer): effective in radiosensitizing
[7]; alone or in combination with radiation, nude mice
  tolerability of treatment: well tolerated
[7]; measured twice weekly
  change in mice body weight and mice behaviour: no significant change
U87 Tumors [8]
  colour of tumors under UV light: colored in red
[9]; FIG. 4D, P<0.01
  radiosensitizing effect on breast cancer MCF-7 (proliferation on day 5): statistically significantly effective
[9]; irradiation 10 Gy, 5 days post radiation, FIG. 3C, P<0.03
  proliferation of MCF-7 breast cancer cells grown as monolayer (AlamarBlue, fold increase): statistically inhibited the proliferation
[10]
  BBB penetration: does not penetrate the BBB
[11]; 0.1-2 μM, single dose 10 Gy, FIG. 6D
  inhibiting proliferation of MCF7 human breast cancer cells grown as stem cells: effective in inhibiting the proliferation
[11]; FIGS. 6C and 6D
  effect in MCF7 cancer stem cells compared with monolayer: more pronounced
U87 human glioma tumors
  tumor volume of U87 tumors, agent with radiation: anti-tumor activity
[12]
  radiosensitizing effect on colon cancer HT29 (proliferation on day 5): effective radiosensitizing agents
